Patent US20150158914A1, “PEPTIDES, CONSTRUCTS AND USES THEREFOR” (priority 2010, published 2015)
“Also recorded” adds a separate entry of the source. Ends that are not written are not given here. * marks the point of attachment. FITC = O=C1OC2(c3ccc(O)cc3Oc3cc(O)ccc32)c2ccc(NC(=S)*)cc21

Key:
X-protein = assay: X-protein-mediated apoptosis of HepG2 transfectants (annexin-V staining); assay type: cell-based, hepatitis B virus; details: 10 μM peptide at 3 h, 3 and 24 h, or 3, 24 and 48 h, 51 h culture, listed as oligomerization domain peptide (aa 16-35)
Method: No PSG antibiotic was added to the medium as it can interfere with transfection efficiency. The medium was then removed and replaced with opti-MEM medium without 10% FCS. The amount of plasmid DNA used for transfection was […]. Firstly, 0.2 μg of either pcDNA3.1-HBX or pcDNA3-HBX Myc plasmid DNA was mixed with 25 μl of Opti-MEM medium, and then 0.2 μl of polymag transfection reagent was added (these solutions were prepared as a master mixes—the amounts mentioned are indicative for one well). The mixture was incubated for 20 min and then 25 μl added to the cells. The plate was placed onto a magnetic plate on a rotating platform for 20 min, and then the cells incubated for 3 h.
Cells were transfected with X-protein plasmid vectors as described above. After 3 h of transfection on the magnetic plate, the oligomerization domain peptide aa 16-35 or the control X-protein peptide aa 140-153 were added at a final concentration of 10 μM to the cells in MEM without 10% FCS, and cells incubated for either 3 h, 21 h, or 45 h. Peptides were added to MEM without FCS as serum can rapidly degrade small peptides. […]
A drop of mounting solution with DAPI was added to the cells, and covered with a cover slip. Slides were examined by fluorescence microscopy by using a Nikon E600 fluorescent microscope and photos were taken using Nikon ACT-1 software. […]

[1] = test system: Rin-m5f pancreatic islet tumor cell line; assay: Peptide uptake by other cell lines; assay type: cell-based, rat; details: 3 h
Method: The cells were then incubated overnight at 37° and 5% CO2, and then washed thrice with media without FCS. The X-protein peptide in 250 μl of appropriate media without FCS was added to the cells at a final concentration of 10 μM, and the slides incubated for 3 h at 37° C. and 5% CO2. The cells were washed with PBS, fixed with 4% formaldahyde in PBS for 30 min, and washed thrice with PBS. […] The slides were dried overnight in the dark, and examined by microscopy by using a Nikon E600 fluorescent microscope. Photos were taken using Nikon ACT-1 software. For further examination, slides were then examined by confocal microscopy using a Leica TCS-SP2 confocal microscope.
The X-protein cell-permeable peptide aa 16-22 was tested for its ability to be taken up by other mammalian cell lines including the human C32 melanoma, DU145 prostate carcinoma, TK1 T cell lymphoma, H441 lung carcinoma, Rin-m5f rat pancreatic islet tumor and Cos-1/7 green monkey kidney cell lines. TK1 cells are suspension cells whereas all other cell lines are adherent cells. Cells were incubated with the fluoresceinated X-protein cell-permeable peptide 16-22 for 3 h in medium appropriate for that cell line in the absence of FCS. The HepG2 cell line was used as a positive control. The X-protein peptide was able enter all adherent cell lines regardless of type or source of the cell (FIGS. 22 and 23).

[2] = test system: nonadherent peripheral blood mononuclear cells; assay: Peptide uptake by nonadherent buffy coat cells; assay type: cell-based, human; details: 3 h, RPMI without FCS
Method: To determine whether this was a general feature of nonadherent cells, the ability of the peptide to enter non-adherent human peripheral blood mononuclear cells was examined. A buffy coat containing monocytes, lymphocytes, and platelets was isolated from 10 ml of human blood and incubated in 8-chamber slides for 3 h with the cell-permeable peptide aa 16-22 in RPMI medium without FCS.

Substance | inhibition of full-length X-protein-mediated apoptosis (X-protein; pCDNA3-HBX Myc transfectants) | inhibition of truncated X-protein-mediated apoptosis (X-protein; pCDNA3.1-HBX transfectants) | uptake of the peptide, cells positive ([1]; Rin-m5f, no FCS) | entry into cells ([1]; Rinm5f) | uptake by nonadherent buffy coat cells ([2]; listed as X-protein cell-permeable peptide 16-22) | uptake by nonadherent buffy coat cells ([2]; listed as cell-permeable peptide aa 16-22)
FITC-Acp-LCLRPVGAESRGRPVSGPFG [Peptide 16-35] | inhibited full-length X-protein-mediated apoptosis of HepG2 cells; also recorded: significantly reduced X-protein-mediated apoptosis in a dose-dependent fashion | inhibited truncated X-protein-mediated apoptosis of HepG2 cells; also recorded: significantly reduced X-protein-mediated apoptosis in a dose-dependent fashion |  |  |  | 
FITC-LCLRPVG ({FITC}-LCLRPVG) [Peptide 16-22] |  |  | 60 to 70 % cells positive | taken up less efficiently | unable to enter | did not take up the peptide
